Measured values reported in USRE40198E1, “Method and device for electrochemical immunoassay of multiple analytes” (Roche Diagnostics Operations, Inc., priority 1998, dated 2008).

Columns and labels:
[1] = tested on: hemoglobin Alc antibody PAB IS (polyclonal, immunosorbent purified); test: Inhibition of osmium mediator-peptide conjugate current by antibody (enzyme amplified amperometry, palladium electrodes); format: binding, sheep; conditions: for Inhibition with Antibody, PAB IS: maximum inhibition
Excerpt: 3. Antibodies for the analytes (HbAlc and HbAO) which react specifically with the N-terminal peptides which have been incorporated into the conjugate are provided by standard methods for producing polyclonal antibodies. In this case, sheep were immunized with carrier proteins to which were conjugated the synthetic peptide sequences for HbAlc and HbA0. Following the appropriate immunization schedule, the sheep were bled, and the antibody isolated from the blood via ion exchange chromatography, followed by immunosorbent purification on a column of the same N-terminal peptide with a different linker.
(§1) 4. Appropriate stoichiometry of the reaction was determined for the two reactions independently by methods standard for immunoassay development. A solution containing a fixed amount of labeled conjugate was mixed with a solution with varying amounts of antibody, and, following an appropriate incubation period, the amount of free conjugate remaining was measured on the IDA electrode using the procedure described above.
(§2) Polyclonal DE (ion-exchange) purified sheep antibody is used in the TinaQuant HbAlc assay. IS (immunosorbent) antibody is prepared using standard IS purification methodology. Samples of a monoclonal antibody were also obtained for evaluation. Inhibition curves were performed in solution with all mixing occurring in microcentrifuge tubes. Inhibition curves with the three hemoglobin Alc antibodies (PAB IS, PAB DE, and MAB) were generated by fixing OS-DSG-Alc at 5μM and varying the antibody concentration. […] From the inhibition curves we were able to select reasonable concentrations of antibody for maximum reversal with Alc samples.
(§3) While these feasibility studies for a HbAlc immunoassay used an enzyme mediated amplification method (Glucdor/PQQ/glucose was used to regenerate reduced mediator after oxidation at the electrode surface providing a higher diffusion controlled current is given by the cottrell equation), they are considered to be indicative of results attainable with the use of IDA electrodes with bipotentiostatic control is most preferred for measuring mediator labeled conjugates in accordance with this invention.

[2] = tested on: hemoglobin Alc antibody MAB (monoclonal); test: as above; format: binding; conditions: for Inhibition with Antibody, MAB: maximum inhibition
Description: as §1, §2, §3

[3] = tested on: hemoglobin Alc antibody PAB DE (polyclonal, ion-exchange purified); test: as above; format: binding, sheep; conditions: for Inhibition with Antibody, PAB DE: maximum inhibition
Description: as §1, §2, §3

[4] = tested on: hemoglobin Alc antibodies (PAB IS, PAB DE, MAB); test: Reversal of antibody inhibition with BSA-Alc polyhaptan; format: binding
Excerpt: Reversal curves were then generated using a series of dilutions ofBAS-Alc-polyhaptan with a−1:1 Alc:BAS. The BAS-Alc acts as our sample and binds to the antibody.

[5] = Stability of mediator labels (analytical HPLC, % inhibition values over time); format: physicochemical; conditions: for Stability in solution: stored as solution
Description: (§4) Samplers frozen at−20° C. appear to be stable.

[6] = tested on: HbAlc antibodies; test: Inhibition curves of mediator labels, antibody not given; format: binding
Description: as §2, §4

[7] = tested on: Sheep B<HbAo> antibody; test: Inhibition of Ao conjugate current by antibody; format: binding
[8] = tested on: HbAo antibody; test: Reversal of antibody inhibition with AoHB-peptide #1; format: binding
[9] = tested on: Zymed rabbit antibodies; test: Inhibition of Ao conjugate current by antibody; format: binding
[10] = molecular target: glucose oxidase (Aspergillus niger, UniProt P13006); conditions: with glucose oxidase; cited from earlier work
Chain of glucose oxidase (P13006 17-605, species assumed): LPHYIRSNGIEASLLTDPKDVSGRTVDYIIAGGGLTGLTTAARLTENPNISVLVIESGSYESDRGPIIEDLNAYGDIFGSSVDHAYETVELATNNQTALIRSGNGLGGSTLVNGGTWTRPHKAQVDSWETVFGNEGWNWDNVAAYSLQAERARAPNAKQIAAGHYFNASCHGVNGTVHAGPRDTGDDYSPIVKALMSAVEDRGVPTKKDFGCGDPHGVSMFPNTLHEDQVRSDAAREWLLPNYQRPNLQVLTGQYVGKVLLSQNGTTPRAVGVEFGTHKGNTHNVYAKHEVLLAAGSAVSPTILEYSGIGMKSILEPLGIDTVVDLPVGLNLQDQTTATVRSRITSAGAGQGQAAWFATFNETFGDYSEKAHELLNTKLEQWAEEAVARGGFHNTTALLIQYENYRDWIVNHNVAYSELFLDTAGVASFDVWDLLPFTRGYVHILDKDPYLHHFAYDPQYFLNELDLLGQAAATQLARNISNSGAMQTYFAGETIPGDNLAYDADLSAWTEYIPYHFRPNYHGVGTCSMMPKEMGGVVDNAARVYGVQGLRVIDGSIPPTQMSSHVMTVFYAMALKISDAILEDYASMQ

Row | Compound | Inhibition with Antibody, PAB IS [1] | Inhibition with Antibody, MAB [2] | Inhibition with Antibody, PAB DE [3] | Reversal with BSA-Alc polyhaptan [4] | Max inhibition from inhibition curve [6] | Stability in solution [5] | also measured
1 | CC(C)CC(NC(=O)C(Cc1cnc[nH]1)NC(=O)C(NCC1(O)OCC(O)C(O)C1O)C(C)C)C(=O)NC(C(=O)NC(CCCCNC(=O)CCCC(=O)NCCc1c[n+]([Os]23([Cl])([n+]4ccccc4-c4cccc[n+]42)[n+]2ccccc2-c2cccc[n+]23)c[nH]1)C(=O)O)C(C)O (centres unmarked) [Os-DSG-Alc] | PAB IS (≦91%) | MAB (<78%) | PAB DE (<87%) | Yes with BSA-Alc | – | – | Antibody concentration at which maximum change of inhibition is reached, PAB IS ([1]; conjugate fixed at 5 μM): ~5 µM; Antibody concentration at which maximum change of inhibition is reached, MAB ([2]; conjugate fixed at 5 μM): ~5 µM; Amount of PAB DE antibody needed to get close to maximum inhibition, relative to PAB IS and MAB ([3]; conjugate fixed at 5 μM): more than 3 times; Stability lyophilized and frozen ([5]; lyophilized form and frozen in solution at -20 C (40 and 80 uM)): stable
2 | CC(C)CC(NC(=O)C(Cc1cnc[nH]1)NC(=O)C(NCC1(O)OCC(O)C(O)C1O)C(C)C)C(=O)NC(C(=O)NC(CCCCNC(=O)CCCCCN1C(=O)CC(SCC(=O)NCCc2c[n+]([Os]34([Cl])([n+]5ccccc5-c5cccc[n+]53)[n+]3ccccc3-c3cccc[n+]34)c[nH]2)C1=O)C(=O)O)C(C)O (centres unmarked) [Os-SATA-Alc] | PAB IS (≦44%) | – | – | Yes with BSA-Alc | 44% | Stability similar to SMCC. | –
3 | CC(C)CC(NC(=O)C(Cc1cnc[nH]1)NC(=O)C(N)C(C)C)C(=O)NC(C(=O)NC(CCCCNC(=O)CCCCCN1C(=O)CC(SCC(=O)NCCc2c[n+]([Os]34([Cl])([n+]5ccccc5-c5cccc[n+]53)[n+]3ccccc3-c3cccc[n+]34)c[nH]2)C1=O)C(=O)O)C(C)O (centres unmarked) [Os-SATA-Ao] | – | – | – | – | – | unstable in solution. Conjugate | Inhibition with Antibody, Sheep B<HbAo> [7]: ≤ 84%; Reversal with AoHB-peptide #1 [8]: No with AoHB-; Inhibition with Antibody, Zymed rabbit antibodies [9]: No
4 | CC(C)CC(NC(=O)C(Cc1cnc[nH]1)NC(=O)C(NCC1(O)OCC(O)C(O)C1O)C(C)C)C(=O)NC(C(=O)NC(CSC1CC(=O)N(CC2CCC(C(=O)NCCc3c[n+]([Os]45([Cl])([n+]6ccccc6-c6cccc[n+]64)[n+]4ccccc4-c4cccc[n+]45)c[nH]3)CC2)C1=O)C(=O)O)C(C)O (centres unmarked) [Os-SMCC-Alc] | PAB IS (≦92%) | MAB (≦50%) | PAB DE (≦97%) | Yes with BSA-Alc | 97% | Degrades in solution. | –
5 | Bis(2,2′-bipyridyl) imidazolyl chloroosmium [Os mediator] | – | – | – | – | – | – | Mediation kinetics relative to ferricyanide [10]: about 500 times faster
